Measurements reported in patent publication US11191746B2, “Composition for inhibiting a growth of cancer stem cells comprising ciclesonide” (JEJU NATIONAL UNIVERSITY INDUSTRY-ACADEMIC COOPERATION …, priority 2016, dated 2021).

What was measured:
MCF-7 cells [1] = experiment: Breast cancer cell proliferation assay (MTS); type: cell-based, human; settings: MCF-7, 48 hours after treatment
Protocol: (§1) The proliferation rates of MCF-7 cells and MDA-MB-231 cells were measured using a CellTiter 96® aqueous one solution cell proliferation kit. The MCF-7 cells or the MDA-MB-231 cells were cultured in a 96-well plate for 48 hours in the presence of ciclesonide at concentrations of 0 μM, 5 μM, 10 μM, 20 μM, 40 μM, and 80 μM. In accordance with the manufacturer's protocol, absorbance at 490 nm was determined using a 96-well plate reader (Dynex Revelation, Dynex Ltd., Billingshurst, UK). Respective data was determined by measuring three sets.

MDA-MB-231 cells = experiment: Breast cancer cell proliferation assay (MTS); type: cell-based, human; settings: MDA-MB-231, 48 hours after treatment
Protocol: as §1

[2] = test system: MCF-7 cell-derived mammospheres; experiment: Mammosphere formation; type: cell-based, human
Protocol: (§2) Human breast cancer cells, MCF-7, were obtained from American Type Culture Collection (ATCC; Manassas, Va., USA). MCF-7 cells and MDA-MB-231 cells were cultured in Dulbecco's Modified Essential Medium (DMEM; Hyclone, Logan, Utah, USA) containing 10% fetal bovine serum (FBS; Hyclone), 100 U/ml of penicillin, and 100 μg/ml of streptomycin (Hyclone). The MCF-7 cells were maintained in a humidified incubator containing 5% CO2 at 37° C. The cells were plated in 10 cm culture dishes at a density of 1×10^6 cells. To establish primary mammospheres, single cell-suspended MCF-7 cells were inoculated into ultra-low attachment 6-well plates containing 2 ml of complete MammoCult™ medium (StemCell Technologies, Vancouver, BC, Canada) at a density of 3.5 to 4×10^4 cells/well. The complete MammoCult™ medium was supplemented with 4 μg/ml of heparin, 0.48 μg/ml of hydrocortisone, 100 U/ml of penicillin, and 100 μg/ml of streptomycin. The cells were incubated in a 5% CO2 incubator at 37° C. for 7 days.
(§3) On day 10 of culture, cell culture plates were placed on a scanner (Epson Perfection V700 PHOTO, Epson Korea, Co, Seoul, Korea) to obtain 8-bit gray scale images of mammospheres. The images were acquired using a NICE software program downloaded from ftp://ftp.nist.gov/pub/physics/mlclarke/NICE at a low resolution of 300 dpi. For counting, a desired number of rows and columns (e.g., 2×3 for a 6-well plate) were selected to generate ROIs and after selecting the elliptical setting of the NICE program, the individual ROIs were defined by adjusting the movement and size of the provided ROI shapes. The background signals of the images were negated using a threshold algorithm, and the selected images were automatically counted. To analyze the formation of mammospheres, mammosphere formation efficiency (MFE, %) was determined by the following equation: MFE (%)=the number of mammospheres per well/a total number of plated cells per well×100.

[3] = test system: MDA-MB-231 cell-derived mammospheres; experiment: Mammosphere formation; type: cell-based, human
Protocol: as §2, §3

MCF-7 cells [4] = experiment: ALDEFLUOR analysis, breast cancer cells; type: cell-based, human; settings: 24 hours
Protocol: An ALDEFLUOR analysis system provides a novel approach to the identification, evaluation, and isolation of CSCs based on the activity of aldehyde dehydrogenase (ALDH). BODIPY-aminoacetaldehyde as an active reagent was added to breast cancer cells or lung cancer cells, and converted into fluorescent BODIPY-aminoacetate by ALDH. Diethylaminobenzaldehyde (DEAB), which is an ALDH inhibitor, was used as a negative control. MCF-7 cells or A549 cells were treated with 10 μM or 20 μM ciclesonide for 24 hours, and the proportion of ALDH-positive cells was analyzed by ALDEFLUOR assay. ALDH-positive and negative cells were sorted by C6 Accuri flow cytometry (BD Bioscience).

STAT3 = experiment: Western blotting of mammosphere nuclear proteins; type: cell-based, human; settings: MCF-7 cells-derived mammospheres
Protocol: Proteins isolated from ciclesonide-treated MCF-7 or MDA-MB-231 mammospheres were separated on 10% SDS-PAGE and transferred to a polyvinylidene difluoride membrane (Millipore, Bedford, Mass., USA). The membrane was blocked in PBS-Tween 20 (0.1%, v/v) containing 5% skimmed milk at room temperature for 30 minutes. The blot was incubated at 4° C. overnight with a blocking solution containing primary antibodies. The primary antibodies used were as follows: Stat3, p65, Lamin B, and phospho-Stat3 (Cell Signaling, Beverly, Mass., USA). β-actin (Santa Cruz Biotechnology) was used as a loading control. After washing with PBS-Tween 20 (0.1%, v/v), the blot was incubated with horseradish peroxidase-conjugated secondary antibodies, and photosensitized with a chemiluminescence detection kit (Santa Cruz Biotechnology).

C-myc = experiment: Real-time PCR of self-renewing genes in mammospheres; type: cell-based, human; settings: RT-PCR, β-actin internal control
Protocol: (§4) The levels of transcripts were measured with a One Step SYBR PrimeScript RT-PCR kit (Takara, Tokyo, Japan) using SYBR green as a double-stranded DNA-specific dye in accordance with the manufacturer's protocol. One-step RT-PCR was performed on 1 μg of total RNA, 10 μl of 2× One Step SYBR RT-PCR Buffer IV, and 1 μl of PrimeScript 1 step Enzyme Mix II using PCR forward and reverse primers of each of CD44, NANOG, OCT4, C-myc, Sox2, Snail, and β-actin at a final volume of 20 μl per reaction.
(§5) The relative expression level of mRNA of the target gene was calculated using a comparative CT method. At least three independent PCR procedures were performed in accordance with statistical analysis. PCR products were normalized with the […] gene as an internal control.

CD44 = experiment: as above; type: cell-based, human; settings: RT-PCR, β-actin internal control
Protocol: as §4, §5

Nanog = experiment: as above; type: cell-based, human; settings: RT-PCR, β-actin internal control
Protocol: as §4, §5

Oct4 = experiment: as above; type: cell-based, human; settings: RT-PCR, β-actin internal control
Protocol: as §4, §5

Sox2 = experiment: as above; type: cell-based, human; settings: RT-PCR, β-actin internal control
Protocol: as §4, §5

IL-8 = experiment: Human inflammatory cytokine assay (CBA), tumorspheres; type: cell-based; settings: A549 tumorspheres
Protocol: Mixed capture beads were vortexed and 50 μl of beads were added to assay tubes. 50 μl of human inflammatory cytokine standard and the cultured tumorsphere solution were added to the assay tubes, and then mixed with a cytokine PE solution. After 3 hours, the mixed solution was washed and analyzed by flow cytometry (Accuri C6, BD, San Diego, Calif., USA).

## CC(C)C(=O)OCC(=O)[C@@]12O[C@H](C3CCCCC3)O[C@@H]1C[C@H]1[C@@H]3CCC4=CC(=O)C=C[C@]4(C)[C@H]3[C@@H](O)C[C@@]12C [ciclesonide]
MCF-7 cells [1]
  concentration at which growth of the cell line was inhibited in a concentration-dependent manner: ≥ 10 µM
MDA-MB-231 cells
  concentration at which growth of the cell line was inhibited in a concentration-dependent manner: ≥ 10 µM
[2]; MCF-7 mammospheres, 10 μM
  growth of breast cancer stem cells: significantly inhibited
[2]; MCF-7 primary mammospheres
  size of the mammospheres: reduced
[2]; MCF-7 primary mammospheres, 5 μM or 10 μM, 7 days
  reduction of the number of mammospheres: 90%
[3]; MDA-MB-231 mammospheres, 10 μM
  growth of breast cancer stem cells: significantly inhibited
[3]; MDA-MB-231 primary mammospheres
  size of the mammospheres: reduced
[3]; MDA-MB-231 primary mammospheres, 10 μM, 7 days
  reduction of the number of mammospheres: 90%
MCF-7 cells [4]
  proportion of ALDH-positive breast cancer cells: reduced
STAT3
  phosphorylation of nuclear STAT3 protein compared to a control: reduced
C-myc
  expression of C-myc: reduced
CD44
  expression of CD44: reduced
Nanog
  expression of Nanog: reduced
Oct4
  expression of Oct4: reduced
Sox2
  expression of Sox2: reduced
IL-8
  production level of IL-8: reduced
